In patent US12492173B2, “Herbicidal substituted N-tetrazolyl aryl carboxamides” (Bayer Aktiengesellschaft, priority 2019, dated 2025):

Columns and labels:
Format in all cases: in vivo
Cyperus esculentus = assay: Post-emergence herbicidal action, CYPES; design: key: % herbicidal action vs untreated; 100 = plants died, 0 = like control; settings: for Herbicidal action against CYPES: comparative experiment, 5 g of a.i./ha
Method in brief: (§1)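 Sandy loam, greenhouse; one-leaf stage (2–3 wk after sowing); foliar spray of WP or EC, 600–800 l/ha water + 0.2% wetter; visual rating at ~3 wk vs untreated, % effect.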

Abutilon theophrasti = assay: Pre-emergence herbicidal action, ABUTH; settings: dosage 320 g/ha, scored visually after 3 weeks vs untreated controls (100% = plants have died)
Method in brief: (§2)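 Weed seeds sown in sandy loam and covered; WP or EC formulations applied to soil surface as aqueous suspension or emulsion at 600 to 800 l/ha with 0.2% wetting agent. Greenhouse-grown, with damage scored visually after 3 weeks versus untreated controls (0% = like control, 100% = plants dead).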

Lolium multiflorum [1] = assay: Post-emergence herbicidal action, LOLMU; design: key: % herbicidal action: 100 = plants died, 0 = like control
Method in brief: as §1

Pharbitis purpurea = assay: Pre-emergence herbicidal action, PHBPU; settings: dosage 320 g/ha, scored visually after 3 weeks vs untreated controls (100% = plants have died)
Method in brief: as §2

Echinochloa crus-galli = assay: Post-emergence herbicidal action, ECHCG; design: key: % herbicidal action vs untreated; 100 = plants died, 0 = like control
Method in brief: as §1

Matricaria inodora = assay: Post-emergence herbicidal action, MATIN; design: key: % herbicidal action vs untreated; 100 = plants died, 0 = like control
Method in brief: as §1

Lolium multiflorum [2] = assay: Pre-emergence herbicidal action, LOLMU; settings: for herbicidal activity LOLMU: dosage 320 g/ha, scored visually after 3 weeks vs untreated controls (100% = plants have died)
Method in brief: as §2

Compound | Herbicidal action against CYPES (Cyperus esculentus; post-emergence) | herbicidal action CYPES (Cyperus esculentus; post-emergence, dosage 80 g/ha) [%] | herbicidal activity ABUTH (Abutilon theophrasti) [%] | herbicidal action LOLMU (Lolium multiflorum [1]; post-emergence, dosage 80 g/ha) [%] | herbicidal activity PHBPU (Pharbitis purpurea) [%] | herbicidal action ECHCG (Echinochloa crus-galli; post-emergence, dosage 80 g/ha) [%] | Herbicidal action against MATIN (Matricaria inodora; comparative experiment, post-emergence, 5 g of a.i./ha) | herbicidal action MATIN (Matricaria inodora; post-emergence, dosage 80 g/ha) [%] | herbicidal activity LOLMU (Lolium multiflorum [2]) [%] | Herbicidal action against LOLMU (Lolium multiflorum [2]; comparative experiment, 20 g of a.i./ha) | herbicidal action CYPES (Cyperus esculentus; Dosage 80 g/ha) | herbicidal action LOLMU (Lolium multiflorum [1]; Dosage 80 g/ha) | herbicidal action ECHCG (Echinochloa crus-galli; Dosage 80 g/ha) | herbicidal action MATIN (Matricaria inodora; Dosage 80 g/ha)
Cn1nnnc1NC(=O)c1ccc(C(F)(F)F)c(CS(C)(=O)=O)c1Cl [Example 1-298] | 60 | 90 | 100 | 80 | 90 | 90 | 100 | 100 | 90 | – | – | – | – | –
CCSCc1c(C(F)(F)F)ccc(C(=O)Nc2nnnn2CC)c1Br [Example 2-383] | – | – | 100 | 80 | – | 90 | – | 100 | 100 | – | – | – | – | –
CSCc1c(C(F)(F)F)ccc(C(=O)Nc2nnnn2C)c1Cl [Example 1-296] | – | 90 | 100 | 90 | – | 100 | – | 100 | 90 | – | – | – | – | –
CCn1nnnc1NC(=O)c1ccc(C(F)(F)F)c(C[S+](C)[O-])c1Br (stereo not shown) [Example 2-381] | – | – | 100 | 80 | 80 | 90 | – | 90 | 80 | – | – | – | – | –
Cn1nnnc1NC(=O)c1ccc(C(F)(F)F)c(C[S+](C)[O-])c1Br (stereo not shown) [Example 1-381] | – | 90 | 100 | 80 | 80 | 90 | – | 90 | – | – | – | – | – | –
Cn1nnnc1NC(=O)c1ccc(C(F)(F)F)c(C[S+](C)[O-])c1Cl (racemic) [Example 1-297] | 60 | 80 | 100 | 100 | 90 | 100 | – | 100 | 100 | 30 | – | – | – | –
Cc1c(C(=O)Nc2nnnn2C)ccc(C(F)(F)F)c1C[S+](C)[O-] (stereo not shown) [Example 1-84] | – | 80 | 100 | 80 | 80 | 90 | – | 100 | – | – | – | – | – | –
Cc1c(C(=O)Nc2nnnn2C)ccc(C(F)(F)F)c1CS(C)(=O)=O [Example 1-85] | – | – | 100 | – | – | – | – | – | – | – | 80 | 80 | 90 | 100
